Data taken from patent US10435399B2, “HDAC6 inhibitory heterocyclic compound” (TAKEDA PHARMACEUTICAL COMPANY LIMITED, priority 2017, dated 2019).

Tests used:
[1] = tested on: P301S mutant human tau (4R1N) Tg mouse; experiment: Cognitive improvement action in neurodegenerative disease model mouse (novel object recognition test); type: in vivo
Procedure: Cognitive Improvement Action in Neurodegenerative Disease Model Mouse
A drug was suspended in 0.5% methyl cellulose to prepare a suspension for administration. The suspension was repeatedly administered into six month-old male P301S mutant human tau (4R1N) Tg mouse once a day for three months, and novel object recognition test was performed by the following method. The test is comprised of memory acquisition trial of object on the first day, and memory retention trial of familiar object and novel object on the second day. Drug was administered into the mouse 1 hr before the trials on both days. For acquisition trial, The mouse was put in a test box (30 cm×30 cm×25 cm) in which two identical objects were placed, and contact frequency and contact duration with the objects for 5 min were measured under 50 lux. […] Next day, one of the objects was replaced with new object, and contact frequency and contact duration with each object for 5 min were measured. Novelty Discrimination Index (NDI) as an index of cognitive function was calculated by novel object contact […]/(novel object contact duration+familiar object contact duration)%. […] After F test for vehicle administration wild-type group and vehicle administration Tg group, the significant difference between the two groups was analyzed by Student t-test or Welch test (indicated as ** p<0.01). […]

TK6 cells = experiment: γH2AX assay using TK6 cells; type: cell-based, Human; details: 4 hr treatment, up to 100 μM
Procedure: γH2AX Assay Using TK6 Cells
Human lymphoblasts-derived TK6 cells were treated with the compounds of Examples 489, 512 or 519 at 0, 10, 30 or 100 μmol/L (final concentration) for 4 hr, and the presence or absence of DNA damage was evaluated by measuring phosphorylation of histone H2AX (γH2AX) as a marker. In addition, cytotoxicity after 24-hr treatment was also evaluated.
Exponentially growing TK6 cells were prepared at the cell density of 4×10^5 cells/mL in a culture medium, and was added to a 96-well plate by 100 μL/well. A test compound solution (2% DMSO) prepared using a culture solution, having twice the concentration on the above-mentioned final concentrations, was added thereto by 100 μL/well. This plate was incubated at 37° C., the cell suspension after 4 hr was sampled, and stained using In Vitro MultiFlow™ DNA Damage Kit (Litron), and H2AX phosphorylation level in each nucleus was measured using a flow cytometer and average value was calculated. The H2AX phosphorylation level in the concurrent vehicle control group was also measured and average value was calculated. The rate of change in the H2AX phosphorylation level in the treatment groups relative to that in the control group was calculated, and Dunnett test (significance level: two-tailed 1%) was performed. In addition, the cell suspension after 24 hr treatment was sampled, and the nucleus number was measured, and variation in the nucleus number in the treatment groups relative to that in the concurrent vehicle control group was used as an indicator of cytotoxicity. […] Therefore, the potential of the compounds for DNA strand breakage was judged to be negative under this test condition.

bone-marrow cells = experiment: Micronucleus test in rats (bone-marrow cells); type: in vivo, rats (Crl:CD(SD)); details: rats, 1000 mg/kg and 2000 mg/kg once daily for 3 days
Procedure: Combination Assay of Micronucleus Test and Comet Assay in Rats […] Bone-marrow smear for micronucleus analysis was prepared as follows. Femur was cut at both ends, and washed with fetal bovine serum (FBS) in a centrifuging tube, and the obtained bone-marrow fluid was centrifuged for 5 min at room temperature. The supernatant was removed, and the cell sediment was suspended in the remaining small amount of the supernatant. A part of the suspension was dropped on a glass slide, and a cover glass was placed thereon to give a bone-marrow smear. The smear was dried well, and fixed with methanol for 5 min. The bone-marrow smear of negative control, that of treatment groups as well as the previously prepared bone-marrow smear of positive control group were encoded, and observed by the blind method. An acridine orange solution (40 μg/mL) was dropped (several drops) to the smear just before observation, and a cover glass was placed thereon. […] In addition, as an index of growth inhibitory effect on bone-marrow cell, total of 500 erythrocytes [immature erythrocytes+mature erythrocytes (ME)] per individual were observed, and immature erythrocyte rate (IE %) relative to the total number of erythrocytes was calculated.

- potential for DNA strand breakage (judgement) (TK6 cells): negative
SMILES: O=C1c2cc(-c3nnc(C(F)F)o3)cnc2CN1[C@@H]1CCCC[C@H]1NC(=O)C(F)(F)C(F)(F)F [Example 489, N-((1R,2R)-2-(3-(5-(difluoromethyl)-1,3,4-oxadiazol-2-yl)-5-oxo-5,7-dihydro-6H-pyrrolo[3,4-b]pyridin-6-yl)cyclohexyl)-2,2,3,3,3-pentafluoropropanamide]
- Novelty Discrimination Index (NDI) ([1]; 1 mg/kg once a day for three months): significant improvement in NDI was observed
- Novelty Discrimination Index (NDI) ([1]; 3 mg/kg once a day for three months): significant improvement in NDI was observed
- histone H2AX phosphorylation (γH2AX) resulted from DNA strand breakage (TK6 cells): did not induce histone H2AX phosphorylation
- genotoxic potential (judgement, micronucleus test and comet assay combined) (bone-marrow cells): negative
- micronucleus formation in bone-marrow cell (bone-marrow cells): not induced
